Holding throughout (experiment): NCI anticancer screen, dose series, 48 h
For assay [1], the system named is CAKI-1 renal.
For assay [2], the system named is DU-145 prostate.
Assay [3] concerns EKVX NSCLC.
The subject of assay [4] is HL-60(TB) leukemia.
Assay [5] deals with MALME-3M melanoma.
Assay [6] relates to MOLT-4 leukemia.
Assay [7] has as its system NCI/ADR-RES ovarian.
In assay [8] the test system is RXF 393 renal.
Assay [9] concerns SK-MEL-28 melanoma.
For assay [10], the system named is TK-10 renal.

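Dose response: 5 concentrations. Exposure: 48 h. Format: 96-well plates. Endpoint: linear interpolation; highest concentration if not reached. At the GI50, growth is halved. At the TGI there is no net growth.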

As to `O=Cc1ccc(-c2ccc(-c3nc4ccccc4o3)cc2)o1`, the GI50 in assay [1] was 22.6 µM; in [2] it was 50.1 µM; in [3], 38.7 µM; in [4] it was above 100 µM; in assay [5] it was 24.6 µM; in [6] it was 52 µM. Further, the GI50 in assay [7] was 18.3 µM; in assay [8] it was 22.6 µM; in [9], 64.5 µM; in assay [10] it was 32.5 µM. Further, the TGI in [1] was 65.9 µM; in [2], above 100 µM; in assay [3] it was above 100 µM; in [4] it was above 100 µM; in [5], 65 µM; in assay [6], above 100 µM. Also, the TGI was 63.8 µM in [7], 54.5 µM in [8], above 100 µM in assay [9] and 74.8 µM in assay [10].

Take `CC1(CCC(=O)OC2CCCCC2)OCCO1`: the TGI in assay [1], in [2], in assay [3], in assay [4], in assay [5] and in assay [6] was above 100 µM throughout. Besides, the TGI in [7], in assay [8], in assay [9] and in assay [10] was above 100 µM in each case.

Regarding `O=C(OCc1ncc(-c2ccc(C(F)(F)F)cc2)c(NC2CCCCCC2)n1)c1c(F)c(F)c(F)c(F)c1F`, the GI50 in [1] was 17.5 µM; in assay [2], 12.5 µM; in assay [4] it was 5.53 µM; in assay [5], 16.6 µM; in assay [6] it was 3.42 µM; in [7], 21.2 µM. For the same molecule, the GI50 in [8] was 5.34 µM; in assay [9] it was 11.7 µM; in [10], 21.5 µM. Besides, the TGI in [1] was 37.3 µM; in assay [2] it was 25.3 µM; in [4], 22 µM; in [5], 32.6 µM; in assay [6], 11.8 µM; in [7], 55.5 µM. In addition, the TGI in [8] was 21.3 µM; in [9] it was 24.7 µM; in assay [10] it was 37 µM.

With `CCC(CNc1cc(OC)cc2cccnc12)NC1CCCCC1` (stereo unspecified), the GI50 was 21.9 µM in assay [1]; 35.5 µM in assay [2]; 40.1 µM in [3]; 15.2 µM in assay [4]; 17.2 µM in assay [5]; 36 µM in [6]. Besides, the values for the GI50 in assay [7], in assay [8] and in [9] were 35.3 µM, 71.2 µM and 25.6 µM, respectively. The TGI was above 100 µM in assay [1]; above 100 µM in [2]; above 100 µM in [3]; 41.7 µM in assay [4]; 34.8 µM in assay [5]; above 100 µM in [6]. The results for the TGI in [7], in [8] and in assay [9] were above 100 µM, above 100 µM and 64.7 µM, respectively.

As to `NC(=O)c1cccc(Nc2nccc(Nc3cccc4[nH]ncc34)n2)c1`, the GI50 in [1] is 14.6 µM; in assay [2] it was 9.7 µM; in [3] it was above 25 µM; in assay [4], 10.5 µM; in [5], 24.4 µM; in assay [6], 12.8 µM. In addition, the GI50 in assay [7] is above 25 µM; in assay [8] it was 4.43 µM; in [9], 10.1 µM; in [10] it was 20.5 µM. The TGI in [1], in [2], in assay [3], in assay [4], in assay [5] and in assay [6] was above 25 µM each time. The TGI is above 25 µM in assay [7], 16.3 µM in assay [8], above 25 µM in [9] and above 25 µM in assay [10].

Consider `COc1ccc(OC)c2c1[nH]c(=O)c1c3ncccc3cn21`, for which the GI50 in [1] is 3.23 µM; in assay [2], 3.45 µM; in assay [3] it was 4.91 µM; in assay [4], 3.13 µM; in assay [5], 5.51 µM; in assay [6] it was 3.59 µM. For the same molecule, the GI50 in assay [7] was 2.56 µM; in assay [8], 1.38 µM; in assay [10], 4.07 µM. In addition, the TGI in assay [1] was above 100 µM; in assay [2] it was 14.7 µM; in assay [3], above 100 µM; in [4], above 100 µM; in assay [5] it was above 100 µM; in [6] it was above 100 µM. For the same molecule, the TGI in assay [7] is above 100 µM; in [8] it was 4.47 µM; in assay [10], 13.6 µM.

`COc1ccccc1CNCCCN1C(=O)c2ccc3c4c(ccc(c24)C1=O)C(=O)N(CCCCNCCCN)C3=O`: the GI50 in assay [1] is 13.1 µM; in [2], 1.59 µM; in [3], 2 µM; in [4] it was 0.867 µM; in assay [5] it was 0.871 µM; in assay [6], 0.389 µM. The GI50 in assay [7] is 5.98 µM; in assay [8], 0.807 µM; in [9], 1.59 µM; in [10], 2.62 µM. Further, the TGI in [1] was 34.8 µM; in assay [2] it was 2.99 µM; in assay [3] it was 5.75 µM; in assay [4] it was 2.7 µM; in assay [5], 2.18 µM; in assay [6], 1.7 µM. Also, the TGI stood at 34.2 µM in [7], 2.3 µM in [8], 3.55 µM in [9] and 8.07 µM in assay [10].

As to `O=C1C=CC(=O)c2cc(Sc3ccccc3)c(=O)ccc21`, the TGI is 31.5 µM in [2]; 33.2 µM in assay [3]; 1.79 µM in assay [4]; 36.4 µM in assay [5]; 16 µM in assay [6]; 42.1 µM in [7]. Besides, the TGI in [8] is 25 µM; in assay [9], 35.1 µM; in assay [10] it was 32.2 µM.

For the molecule `Cc1cccc(C)c1NC(=O)Nc1ccc(S(N)(=O)=O)cc1`, the TGI in assay [1], in [2], in assay [3], in assay [4], in assay [5] and in assay [6] was above 100 µM each time. In addition, the TGI in [7], in assay [8], in assay [9] and in [10] was above 100 µM in each case.

For `COc1ccc2c(c1)CC[C@H](O)/C2=C/c1cc(OC)c(OC)c(OC)c1`, the GI50 was 0.118 µM in [1]; 0.156 µM in [2]; 1.21 µM in [3]; 0.192 µM in assay [4]; 0.771 µM in assay [5]; 0.351 µM in [6]. Besides, the results for the GI50 in [7], in assay [9] and in assay [10] were 0.0639 µM, 3.9 µM and 34.4 µM, respectively. The TGI in [1] is above 100 µM; in [2] it was above 100 µM; in assay [3], above 100 µM; in assay [4] it was 0.86 µM; in assay [5] it was above 100 µM; in assay [6] it was above 100 µM. In addition, the TGI in [9] and in [10] was above 100 µM in each case.

`N#CC1=C(N)NC(N2CCOCC2)=NC12Nc1ccccc1N2`: the GI50 in assay [1] was 10.8 µM; in assay [2], 63.6 µM; in [3], above 100 µM; in [4] it was 44.2 µM; in assay [5], 30.5 µM; in assay [6], 62.5 µM. The GI50 is 28.3 µM in [7], 14.2 µM in [8], 55.8 µM in assay [9] and 10.7 µM in assay [10]. In addition, the TGI in assay [1] is 37.8 µM; in assay [2] it was above 100 µM; in [3] it was above 100 µM; in assay [4] it was above 100 µM; in assay [5], above 100 µM; in [6] it was above 100 µM. The TGI was 87 µM in [7], 40.7 µM in [8], above 100 µM in assay [9] and 46.6 µM in assay [10].

As to `CCN(CC)CCCC(C)N=C(C1=C(C(=NC(C)CCCN(CC)CC)c2cccc(OC)c2)C(=O)NC1=O)c1cccc(OC)c1` (stereo unspecified), the GI50 in assay [1] is 1.66 µM; in assay [2] it was 1.54 µM; in assay [4], 3.66 µM; in assay [5], 1.11 µM; in assay [6] it was 1.33 µM; in assay [7], 2.84 µM. Also, the GI50 was 1.11 µM in [8] and 1.26 µM in assay [10]. In addition, the TGI in assay [1] turned out to be 8.62 µM; in assay [2], 5.03 µM; in [4] it was 11.7 µM; in [5] it was 2.07 µM; in assay [6] it was 4.24 µM; in assay [7], 12.2 µM. In addition, the figures for the TGI in assay [8] and in assay [10] were 4.15 µM and 3.44 µM, respectively.

With `CN/N=C(\C)C(CN(C)C)C(c1ccccc1)c1c(O)c2ccccc2oc1=O` (stereo unspecified), the TGI in assay [1], in [2], in assay [3], in assay [4], in assay [5] and in [6] was above 100 µM each time. Also, the TGI in assay [7], in assay [8], in [9] and in assay [10] was above 100 µM in each case.

As to `COc1cccc(NC(=O)c2sc3nc4c(cc3c2N)C(=O)CCC4)c1`, the GI50 in [1] was 0.882 µM; in [2], 0.231 µM; in assay [4], 0.144 µM; in [5], 0.108 µM; in assay [6] it was 0.553 µM; in [7], 0.102 µM. For the same molecule, the GI50 in assay [8] was 0.084 µM; in assay [9] it was 0.81 µM; in assay [10] it was above 100 µM. Moreover, the TGI in [1] was above 100 µM; in [2], above 100 µM; in [4] it was above 100 µM; in assay [5] it was above 100 µM; in [6] it was above 100 µM; in assay [7], above 45.9 µM. Also, the TGI is 1.51 µM in assay [8], above 100 µM in [9] and above 100 µM in [10].

As to `O=C(/C=C/c1ccccc1)n1c(-c2ccc(Cl)cc2)nc2ccccc21`, the GI50 was 1.8 µM in assay [2]; 1.4 µM in assay [4]; 1.63 µM in [5]; 1.13 µM in [6]; 1.49 µM in assay [7]; 1.32 µM in assay [8]. The GI50 in [9] is 1.49 µM; in assay [10], 2.35 µM. Besides, the TGI in [2] stood at 4.93 µM; in [4] it was 4.88 µM; in assay [5], 5.74 µM; in assay [6], 6.73 µM; in assay [7], 61.3 µM; in assay [8], 3.12 µM. Further, the TGI in assay [9] came to 3.22 µM; in assay [10], 7.93 µM.

For `CCn1c(-c2cc3ccccc3cc2O)nn(C(=O)c2c(Cl)cccc2Cl)c1=S`, the GI50 in assay [1] is 21.4 µM; in [2], 41.1 µM; in assay [3], above 50 µM; in assay [4] it was 14.3 µM; in assay [5] it was 30.8 µM; in assay [6], 34.6 µM. For the same molecule, the GI50 in assay [7] is above 50 µM; in [8], 14.5 µM; in [9], above 50 µM. Further, the TGI in assay [1] is above 50 µM; in assay [2], above 50 µM; in [3], above 50 µM; in assay [4], 38.7 µM; in [5] it was above 50 µM; in assay [6] it was above 50 µM. Moreover, the TGI in assay [7], in assay [8] and in [9] was above 50 µM each time.

As to `N#CCN/C=C\C(=O)c1ccc(Cl)cc1`, the GI50 in assay [1] was 30.1 µM; in assay [2], 41.4 µM; in assay [4], 14.2 µM; in assay [5], 17.9 µM; in assay [6], 21.3 µM; in assay [7] it was 28.9 µM. Further, the results for the GI50 in assay [8], in assay [9] and in assay [10] were 40.8 µM, 40.1 µM and 31.1 µM, respectively. In addition, the TGI was above 100 µM in [1]; above 100 µM in [2]; above 100 µM in [4]; 53.6 µM in assay [5]; above 100 µM in [6]; 79.5 µM in assay [7]. The TGI in assay [8], in [9] and in [10] was above 100 µM each time.

These data come from PubChem BioAssay (NCI).
